Data on one molecule can be found in patent publication US5512466A, “Control of fruit ripening and senescence in plants” (Monsanto Company, priority 1991, dated 1996).

A word on the Km: it is the substrate concentration at which the rate is half of its maximum.

Assay [1] deals with ACC deaminase from bacterial strain 392 (B27448, Peru soil). The following applies: read-out: Km (ACC), crude desalted extract, Tris pH 8.0, 30° C., double reciprocal plot. How it is done: (§1) The Km for the ACC deaminases isolated from the various soil sources was determined using crude, desalted extracts. Individual strains of bacteria were grown in liquid media containing 4 g KH2 PO4, 6.5 g K2 HPO4, 1 g MgSO4.7H2 O, 2 g glucose, 1 mg FeSO4, 1 mg MnCl2, 1 mg ZnSO4, 1 mg CuSO4, 1 mg CaCl2, and 300 mg ACC, all in 1 liter H2 O. Cells were grown for 2 to 3 days at 30° C. Cells were pelleted by centrifugation and resuspended in extraction buffer containing 0.1M phosphate, pH 7.5, 1 mM EDTA, 0.1% β-mercaptoethanol. The cells were broken with a French Press, 1000 psi, and the cell debris was pelleted by centrifugation. […] Glycerol was added to the extract (20% v/v) and enzyme solutions were stored at -20° C. ACC deaminase enzyme assays were conducted as described in the Examples to follow. The assay mixture contained 100 μl of 0.2M Tris buffer, pH 8.0, 30 μl of 500 mM ACC solution, and enzyme solution to make a final volume of 200 μl. Reactions were run for 10 minutes at 30° C. The reaction was stopped with 1.8 ml of 2N HCl. After adding 300 μl 0.1% 2,4-dinitrophenylhydrazine, the mixture was incubated for 15 minutes at 30° C. The solution was then made basic by adding 2 ml of 2N NaOH. The optical density of the resulting brownish-red solution was determined at 540 nm with a spectrophotometer.
(§2) The kinetic value, Km, for ACC deaminase was determined against ACC as the enzyme substrate for each of the ACC deaminases isolated. […] An estimated Km was determined for each extracted enzyme with ACC at sub-saturating concentrations. […] Actual Km values were then determined for each extract using ACC concentrations between 0.2× and 2× of the estimated Km, or ACC concentrations between 1 and 10 mM ACC. Km values were calculated from double reciprocal plots, plotting the reciprocal of the substrate concentration on the x-axis and the reciprocal of the velocity (α-ketobutyrate formed) on the y-axis.

Assay [2] deals with ACC deaminase from bacterial strain T44 (B27817, Tanzania soil). The note with it: read-out: Km (ACC), crude desalted extract, Tris pH 8.0, 30° C., double reciprocal plot. How it is done: as §1, §2
Assay [3] concerns ACC deaminase from bacterial strain PR-1 (B27813, Puerto Rico soil). The following applies: read-out: Km (ACC), crude desalted extract, Tris pH 8.0, 30° C., double reciprocal plot. The protocol: as §1, §2
The test system of assay [4] is ACC deaminase from Pseudomonas isolate 3F2 (gene SEQ ID NO:15, amino acid SEQ ID NO:16). The following applies: read-out: Km (ACC); strain 3F2; crude desalted extract, Tris pH 8.0, 30° C., double reciprocal plot. The protocol:
as §1, §2

Assay [5] deals with ACC deaminase from bacterial strain 388 (B27444, St. Charles soil, ACC enriched). The note with it: read-out: Km (ACC), crude desalted extract, Tris pH 8.0, 30° C., double reciprocal plot. How it is done:
as §1, §2

The test system of assay [6] is ACC deaminase from bacterial strain 391 (B27447, Malaysia soil). The following applies: read-out: Km (ACC), crude desalted extract, Tris pH 8.0, 30° C., double reciprocal plot. The protocol: as §1, §2
In assay [7] the test system is ACC deaminase from bacterial strain 393 (B27449, St. Charles soil). The following applies: read-out: Km (ACC), crude desalted extract, Tris pH 8.0, 30° C., double reciprocal plot. How it is done:
as §1, §2

Assay [8] has as its system ACC deaminase from bacterial strain 401 (B27457, St. Charles soil, ACC enriched). The following applies: read-out: Km (ACC), crude desalted extract, Tris pH 8.0, 30° C., double reciprocal plot. How it is done:
as §1, §2

With `NC1(C(=O)O)CC1` [ACC, 1-aminocyclopropane-1-carboxylic acid], the Km in assay [1] was determined as 7.1 mM; in assay [2] it was 11.8 mM; in assay [3], 4.1 mM; in assay [4], 5.8 mM; in assay [5], 8.6 mM; in assay [6], 17.4 mM. Moreover, the Km in assay [7] is 5.9 mM; in assay [8], 7.8 mM.
